Reference: ChEMBL document CHEMBL1671653, “GT-1a or GT-1b subtype-specific resistance profiles for hepatitis C virus inhibitors telaprevir and HCV-796” (Antimicrob Agents Chemother, 2009)

Tests used:
Assay type in all cases: functional, organism-based, Hepacivirus hominis
Hepatitis C virus [1] = assay: Antiviral activity against Hepatitis C virus GT-1b assessed as inhibition of HCV replicon-encoded Renilla luciferase reporter activity after 3 days; details: 72 h
Hepatitis C virus [2] = assay: Antiviral activity against Hepatitis C virus GT-1b harboring NS5B polymerase C316Y mutant gene relative to wild type
Hepatitis C virus [3] = assay: Antiviral activity against Hepatitis C virus GT-1a harboring NS5B polymerase L392F mutant gene
Hepatitis C virus [4] = assay: Antiviral activity against Hepatitis C virus GT-1a harboring NS5B polymerase M414T mutant gene
Hepatitis C virus [5] = assay: Antiviral activity against Hepatitis C virus GT-1a harboring NS5B polymerase C316Y mutant gene
Hepatitis C virus [6] = assay: Antiviral activity against Hepatitis C virus GT-1a harboring NS5B polymerase C316Y/L392F mutant gene
Hepatitis C virus [7] = assay: Antiviral activity against Hepatitis C virus GT-1a harboring NS5B polymerase C316Y/M414T mutant gene
Hepatitis C virus [8] = assay: Antiviral activity against Hepatitis C virus GT-1a harboring NS5B polymerase L392F/M414T mutant gene
Hepatitis C virus [9] = assay: Antiviral activity against Hepatitis C virus GT-1b harboring wild type NS5B polymerase
Hepatitis C virus [10] = assay: Antiviral activity against Hepatitis C virus GT-1a harboring wild type NS5B polymerase
Hepatitis C virus [11] = assay: Antiviral activity against Hepatitis C virus GT-1a assessed as inhibition of HCV replicon-encoded Renilla luciferase reporter activity after 3 days; details: 72 h

SMILES	EC50 (Hepatitis C virus [1])	EC50 (Hepatitis C virus [2])	EC50 (Hepatitis C virus [3])	EC50 (Hepatitis C virus [4])	EC50 (Hepatitis C virus [5])	EC50 (Hepatitis C virus [6])	EC50 (Hepatitis C virus [7])	EC50 (Hepatitis C virus [8])	EC50 (Hepatitis C virus [9])	EC50 (Hepatitis C virus [10])	EC50 (Hepatitis C virus [11])
CNC(=O)c1c(-c2ccc(F)cc2)oc2cc(N(CCO)S(C)(=O)=O)c(C3CC3)cc12 [NESBUVIR]	17 nM	6 nM	8 nM	7 nM	1700 nM	3200 nM	2800 nM	22 nM	6 nM	4 nM	–
CCC[C@H](NC(=O)[C@@H]1[C@H]2CCC[C@H]2CN1C(=O)[C@@H](NC(=O)[C@@H](NC(=O)c1cnccn1)C1CCCCC1)C(C)(C)C)C(=O)C(=O)NC1CC1 [TELAPREVIR]	560 nM	–	–	–	–	–	–	–	–	–	500 nM
